Test results reported in PubChem BioAssay (NCI).
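In this assay, cells in 96-well plates receive the compound at five concentrations for 48 hours. Endpoints are linearly interpolated between the surrounding concentrations. TGI marks complete inhibition of growth.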

Columns and labels:
Test in all cases: inhibition of tumour cell growth, NCI panel, 48 h
786-0 renal = test system: 786-0 renal
A498 renal = test system: A498 renal
A549 NSCLC = test system: A549 NSCLC
ACHN renal = test system: ACHN renal
BT-549 breast = test system: BT-549 breast
CAKI-1 renal = test system: CAKI-1 renal
CCRF-CEM leukemia = test system: CCRF-CEM leukemia
COLO 205 colon = test system: COLO 205 colon
DU-145 prostate = test system: DU-145 prostate
EKVX NSCLC = test system: EKVX NSCLC
HCT-116 colon = test system: HCT-116 colon
HCT-15 colon = test system: HCT-15 colon
HL-60(TB) leukemia = test system: HL-60(TB) leukemia
HOP-62 NSCLC = test system: HOP-62 NSCLC
HOP-92 NSCLC = test system: HOP-92 NSCLC
HS 578T breast = test system: HS 578T breast
HT29 colon = test system: HT29 colon
IGROV1 ovarian = test system: IGROV1 ovarian
K-562 leukemia = test system: K-562 leukemia
KM12 colon = test system: KM12 colon
LOX IMVI melanoma = test system: LOX IMVI melanoma
M14 melanoma = test system: M14 melanoma
MALME-3M melanoma = test system: MALME-3M melanoma
MCF7 breast = test system: MCF7 breast
MDA-MB-231 breast = test system: MDA-MB-231 breast
MDA-MB-435 = test system: MDA-MB-435
MDA-N = test system: MDA-N
MOLT-4 leukemia = test system: MOLT-4 leukemia
NCI-H226 lung = test system: NCI-H226 lung
NCI-H23 lung = test system: NCI-H23 lung
NCI-H460 lung = test system: NCI-H460 lung
NCI-H522 lung = test system: NCI-H522 lung
NCI/ADR-RES ovarian = test system: NCI/ADR-RES ovarian
OVCAR-3 ovarian = test system: OVCAR-3 ovarian
OVCAR-4 ovarian = test system: OVCAR-4 ovarian
OVCAR-5 ovarian = test system: OVCAR-5 ovarian
OVCAR-8 ovarian = test system: OVCAR-8 ovarian
PC-3 prostate = test system: PC-3 prostate
RPMI-8226 leukemia = test system: RPMI-8226 leukemia
RXF 393 renal = test system: RXF 393 renal
SF-268 CNS = test system: SF-268 CNS
SF-295 CNS = test system: SF-295 CNS
SF-539 CNS = test system: SF-539 CNS
SK-MEL-2 melanoma = test system: SK-MEL-2 melanoma
SK-MEL-28 melanoma = test system: SK-MEL-28 melanoma
SK-MEL-5 melanoma = test system: SK-MEL-5 melanoma
SK-OV-3 ovarian = test system: SK-OV-3 ovarian
SN12C renal = test system: SN12C renal
SNB-19 CNS = test system: SNB-19 CNS
SNB-75 CNS = test system: SNB-75 CNS
SR leukemia = test system: SR leukemia
SW-620 colon = test system: SW-620 colon
T-47D breast = test system: T-47D breast
TK-10 renal = test system: TK-10 renal
U251 CNS = test system: U251 CNS
UACC-257 melanoma = test system: UACC-257 melanoma
UACC-62 melanoma = test system: UACC-62 melanoma
UO-31 renal = test system: UO-31 renal

Molecule `CC1(C)CCCCCCCCCC2CC2CCC(C)(C)C1=O` (stereo not drawn) has a TGI (786-0 renal) of 31.5 µM, a TGI (A498 renal) of over 100 µM and a TGI (A549 NSCLC) of 57.5 µM. The TGI (ACHN renal) was 33.4 µM, the TGI (BT-549 breast) was 87.4 µM and the TGI (CAKI-1 renal) was over 100 µM. The TGI (CCRF-CEM leukemia) was 53.3 µM, the TGI (COLO 205 colon) was 32.7 µM and the TGI (DU-145 prostate) was 40.9 µM. It also gave a TGI (EKVX NSCLC) of 39.3 µM, a TGI (HCT-116 colon) of 31.8 µM and a TGI (HCT-15 colon) of 30.1 µM. It also gave a TGI (HL-60(TB) leukemia) of 49.1 µM, a TGI (HOP-62 NSCLC) of 46 µM and a TGI (HOP-92 NSCLC) of 62.7 µM. For the same molecule, the TGI (HS 578T breast) was 82.3 µM, the TGI (HT29 colon) was 39.6 µM and the TGI (IGROV1 ovarian) was over 100 µM. It also gave a TGI (K-562 leukemia) of 32.6 µM, a TGI (KM12 colon) of 34.9 µM and a TGI (LOX IMVI melanoma) of 34.9 µM. The TGI (M14 melanoma) was 48.6 µM, the TGI (MALME-3M melanoma) was 49 µM and the TGI (MCF7 breast) was 30 µM. It also gave a TGI (MDA-MB-231 breast) of 43.9 µM, a TGI (MDA-MB-435) of 55.5 µM and a TGI (MDA-N) of over 100 µM. The TGI (MOLT-4 leukemia) was 80.1 µM, the TGI (NCI-H226 lung) was 31.2 µM and the TGI (NCI-H23 lung) was over 100 µM. It also gave a TGI (NCI-H460 lung) of 46 µM, a TGI (NCI-H522 lung) of 30 µM and a TGI (NCI/ADR-RES ovarian) of 44.3 µM. It also gave a TGI (OVCAR-3 ovarian) of 25.9 µM, a TGI (OVCAR-4 ovarian) of over 100 µM and a TGI (OVCAR-5 ovarian) of 40 µM. For the same molecule, the TGI (OVCAR-8 ovarian) was 74.5 µM, the TGI (PC-3 prostate) was 70.9 µM and the TGI (RPMI-8226 leukemia) was 75.9 µM. It also gave a TGI (RXF 393 renal) of 29.3 µM, a TGI (SF-268 CNS) of 43.1 µM and a TGI (SF-295 CNS) of 33.9 µM. The TGI (SF-539 CNS) was 44.3 µM, the TGI (SK-MEL-2 melanoma) was 34.5 µM and the TGI (SK-MEL-28 melanoma) was 72.8 µM. For the same molecule, the TGI (SK-MEL-5 melanoma) was 43.2 µM, the TGI (SK-OV-3 ovarian) was over 100 µM and the TGI (SN12C renal) was 35.7 µM. It also gave a TGI (SNB-19 CNS) of 88.3 µM, a TGI (SNB-75 CNS) of 71.1 µM and a TGI (SR leukemia) of 53.5 µM. The TGI (SW-620 colon) was over 100 µM, the TGI (T-47D breast) was 47.1 µM and the TGI (TK-10 renal) was 46 µM. It also gave a TGI (U251 CNS) of 33 µM, a TGI (UACC-257 melanoma) of 46.2 µM and a TGI (UACC-62 melanoma) of over 100 µM. The TGI (UO-31 renal) was 36.9 µM.
